This experiment addresses human PTGES (Homo sapiens (Human), UniProt O14684). Briefly: Human PTGES biochemical enzyme inhibition assay (conversion of PGH2 to PGE2, TR-FRET). Conditions: Enzymatic conversion of PGH2 to PGE2; read-out: Human PTGES IC50. As to the method: Human PTGES Biochemical Enzyme Inhibition Assay:
PTGES (Microsomal prostaglandin E synthase 1) is an enzyme that converts prostaglandin H2 (PGH2) to prostaglandin E2 (PGE2) in the presence of reduced glutathione (GSH).
Recombinant proteins (human isoforms) of PTGES containing a FLAG tag, expressed in baculovirus infected insect cells (Hi-5) and purified by affinity chromatography was used as enzyme in the assay. Substrate was prostaglandin H2 (Cayman Chemicals).
4 ul of a solution of human PTGES in assay buffer [100 mM sodium phosphate pH 7.2, 2.5 mM Glutathion reduced, 1 mM EDTA, 0.01% BSA, 0.4 mM DTT, 0.15 mM n-dodecylmaltoside] was added to the well containing test compound and incubated for 15-20 minutes to allow binding of the compound to the enzyme prior to the enzymatic reaction. The reaction was started by addition of 1 ul of an ice cold solution containing PGH2 (40 nM in assay buffer resulting in a final concentration of 8 nM PGH2 in the assay). […] The concentration of each isoform of PTGES was adapted to the activity of the respective enzyme preparation to maintain linear reaction properties within the reaction time. […] The reaction was stopped by addition of 1 ul of a solution containing 15 mM SnCl2 and 400 mM KF in water. SnCl2 converts the remaining unstable PGH2 to stable PGF2alpha. Then, 3 ul of the a first detection solution containing PGE2-D2 (Cisbio Bioassays, TR-FRET reagent, diluted according to the manufacturer's recommendation, typically 1:20 in reconstitution buffer) was added. […] The resulting mix was incubated overnight at 4° C. to allow the formation of a complex of PGE2 and the detection reagents. […] Dilution series were made prior to the assay in a 100 fold concentrated form by serial dilution. IC50 values were calculated by 4-Parameter fitting.
(TR-FRET usually uses a lanthanide donor and a delayed reading to cut background.)

Among the data in US10172814B2, “Substituted pyridyl-cycloalkyl-carboxylic acids, compositions containing them and medical uses thereof” (BAYER PHARMA AKTIENGESELLSCHAFT, priority 2014, dated 2019) are IC50 values, retold here.

Sequence of human PTGES (O14684 whole entry): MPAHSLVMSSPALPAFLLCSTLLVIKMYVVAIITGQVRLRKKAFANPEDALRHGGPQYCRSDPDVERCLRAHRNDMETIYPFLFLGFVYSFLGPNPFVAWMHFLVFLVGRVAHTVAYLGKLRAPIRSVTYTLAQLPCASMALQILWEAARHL

On to `Cc1cc(C(C(=O)Nc2cccc(CCC(=O)O)c2C)C2CCCC2)ccc1-c1cncc(C(F)(F)F)c1` (racemic) [Example 41, (R/S) 3-{3-[(Cyclopentyl{3-methyl-4-[5-(trifluoromethyl)pyridin-3-yl]phenyl}acetyl)amino]-2-methylphenyl}propanoic acid], for which the IC50 – broadly, the concentration needed to halve the response being measured – was 19.2 nM.

`Cc1ncc(-c2ccc(C(C(=O)Nc3cccc(C(C)CC(=O)O)c3C)C3CCCC3)cc2F)cc1Cl` (single isomer, unassigned; stereoisomer 2) [Example 122, 3-[3-({[4-(5-Chloro-6-methylpyridin-3-yl)-3-fluorophenyl](cyclopentyl)acetyl}amino)-2-methylphenyl]butanoic acid, Stereoisomer 2]: the half-maximal inhibitory concentration (IC50) came out at 22.8 nM.

Turning to `CCC(CC(=O)O)c1cccc(NC(=O)[C@@H](c2ccc(-c3cncc(CC(F)(F)F)c3)cc2)C2CCCC2)c1C` (single isomer, unassigned) [Example 200], the 50% inhibitory concentration (IC50) was 17.7 nM.

Take `Cc1c(NC(=O)C(c2ccc(-c3cncc(C(F)(F)F)c3)cc2)C2CCCC2)cccc1C1CC1C(=O)O` (centres unmarked) [Example 156, 2-(3-{[2-cyclopentyl-2-{4-[5-(trifluoromethyl)pyridin-3-yl]phenyl}acetyl]amino}-2-methylphenyl)cyclopropanecarboxylic acid]: the IC50 came to 32.9 nM.

In the case of `Cc1ncc(-c2ccc(C(C(=O)Nc3cccc(CC(C)C(=O)O)c3C)C3CCCC3)cc2)cc1Cl` (single isomer, unassigned; stereoisomer 1) [Example 83, 3-[3-({[4-(5-Chloro-6-methylpyridin-3-yl)phenyl](cyclopentyl)acetyl}amino)-2-methylphenyl]-2-methylpropanoic acid, Stereoisomer 1], the IC50 came out at 11700 nM.

`Cc1c(NC(=O)C(c2ccc(-c3cncc(Cl)c3)cc2)C2CCC2)cccc1C(C)CC(=O)O` (single isomer, unassigned; stereoisomer 1) [Example 136]: the IC50 was determined as 12.7 nM.

For `Cc1c(CCC(=O)O)cccc1NC(=O)C(c1ccc(-c2cnc(F)c(C(F)(F)F)c2)c(F)c1)C1CCCC1` (single isomer, unassigned; (-)) [Example 197], the concentration for half-maximal inhibition (IC50) came to 19.3 nM.

Take `Cc1c(NC(=O)C(c2ccc(-c3cncc(Cl)c3)c(F)c2)C2CCC2)cccc1C(C)CC(=O)O` (single isomer, unassigned; stereoisomer 4) [Example 153, 3-[3-({[4-(5-Chloropyridin-3-yl)-3-fluorophenyl](cyclobutyl)acetyl}amino)-2-methylphenyl]butanoic acid, Stereoisomer 4]: the half-maximal inhibitory concentration (IC50) amounted to 11.7 nM.

For `Cc1c(CCC(=O)O)cccc1NC(=O)C(c1ccc(-c2cncc(C(F)(F)F)c2)cc1)C1CCCCC1` (racemic) [Example 66, (R/S) 3-{3-[(Cyclohexyl{4-[5-(trifluoromethyl)pyridin-3-yl]phenyl}acetyl)amino]-2-methylphenyl}propanoic acid], the IC50 is 53.9 nM.

`Cc1c(NC(=O)C(c2ccc(-c3cncc(C(F)(F)F)c3)cc2)C2CCCC2)cccc1C(C)CC(=O)O` (mixture of isomers) [Example 91, (3R/S)-3-(3-{[(2R/S)-2-Cyclopentyl-2-{4-[5-(trifluoromethyl)pyridin-3-yl]phenyl}acetyl]amino}-2-methylphenyl)butanoic acid]: the IC50 is 20.3 nM.

On to `Cc1ncc(-c2ccc([C@H](C(=O)Nc3cccc(CCC(=O)O)c3C)C3CCCC3)cc2)cc1C(F)(F)F` [Example 192, 3-(3-{[(2R)-2-cyclopentyl-2-{4-[6-methyl-5-(trifluoromethyl)pyridin-3-yl]phenyl}acetyl]amino}-2-methylphenyl)propanoic acid], for which the half-maximal inhibitory concentration (IC50) worked out at 13.5 nM.

Consider `CCOc1cncc(-c2ccc(C(C(=O)Nc3cccc(CCC(=O)O)c3C)C3CCC3)cc2)c1` (racemic) [Example 58, (R/S) 3-[3-({Cyclobutyl[4-(5-ethoxypyridin-3-yl)phenyl]acetyl}amino)-2-methylphenyl]propanoic acid], for which the IC50 was 210 nM.

As for `Cc1c(NC(=O)C(c2ccc(-c3cncc(F)c3)cc2)C2CCCC2)cccc1C(C)CC(=O)O` (mixture of isomers) [Example 95, (3R/S)-3-[3-({(2R/S)-2-Cyclopentyl-2-[4-(5-fluoropyridin-3-yl)phenyl]acetyl}amino)-2-methylphenyl]butanoic acid], the concentration for half-maximal inhibition (IC50) came out at 41.7 nM.

`CCOc1cncc(-c2ccc(C(C(=O)Nc3cccc(CCC(=O)O)c3C)C3CCCC3)cc2)c1` (racemic) [Example 8, (R/S) 3-[3-({Cyclopentyl[4-(5-ethoxypyridin-3-yl)phenyl]acetyl}amino)-2-methylphenyl]propanoic acid]: the concentration for half-maximal inhibition (IC50) came to 160 nM.

`CCOc1cncc(-c2ccc(C(C(=O)Nc3cccc(CCC(=O)O)c3C)C3CCCC3)c(F)c2)c1` (racemic) [Example 52, (R/S) 3-[3-({Cyclopentyl[4-(5-ethoxypyridin-3-yl)-2-fluorophenyl]acetyl}amino)-2-methylphenyl]propanoic acid]: the IC50 worked out at 273 nM.

Take `Cc1c(NC(=O)C(c2ccc(-c3cncc(C(F)(F)F)c3)c(F)c2)C2CCCC2)cccc1C(C)CC(=O)O` (single isomer, unassigned; stereoisomer 3) [Example 118, 3-{3-[(Cyclopentyl{3-fluoro-4-[5-(trifluoromethyl)pyridin-3-yl]phenyl}acetyl)amino]-2-methylphenyl}butanoic acid, Stereoisomer 3]: the IC50 amounted to 383 nM.

As for `Cc1c(CC(C)C(=O)O)cccc1NC(=O)C(c1ccc(-c2cncc(C(F)(F)F)c2)cc1)C1CCCC1` (single isomer, unassigned; stereoisomer 4) [Example 72, 3-{3-[(Cyclopentyl{4-[5-(trifluoromethyl)pyridin-3-yl]phenyl}acetyl)amino]-2-methylphenyl}-2-methylpropanoic acid, Stereoisomer 4], the half-inhibitory concentration (IC50) is 71 nM.

Consider `Cc1c(CCC(=O)O)cccc1NC(=O)[C@@H](c1ccc(-c2cncc(OC(C)C)c2)cc1)C1CCCC1` [Example 190, 3-(3-{[(2R)-2-cyclopentyl-2-{4-[5-(propan-2-yloxy)pyridin-3-yl]phenyl}acetyl]amino}-2-methylphenyl)propanoic acid], for which the IC50 was determined as 36.1 nM.

Regarding `Cc1ncc(-c2ccc(C(C(=O)Nc3cccc(C(C)CC(=O)O)c3C)C3CCCC3)cc2F)cc1Cl` (mixture of isomers) [Example 120, (3R/S)-3-[3-({(2R/S)-2-[4-(5-Chloro-6-methylpyridin-3-yl)-3-fluorophenyl]-2-cyclopentylacetyl}amino)-2-methylphenyl]butanoic acid], the 50% inhibitory concentration (IC50) is 15.9 nM.

In the case of `Cc1c(NC(=O)C(c2ccc(-c3cncc(C(F)(F)F)c3)c(F)c2)C2CCCC2)cccc1C(C)CC(=O)O` (single isomer, unassigned; stereoisomer 1) [Example 116, 3-{3-[(Cyclopentyl{3-fluoro-4-[5-(trifluoromethyl)pyridin-3-yl]phenyl}acetyl)amino]-2-methylphenyl}butanoic acid, Stereoisomer 1], the concentration for half-maximal inhibition (IC50) is 3.49 nM.

Take `Cc1c(NC(=O)C(c2ccc(-c3cncc(C(F)(F)F)c3)cc2)C2CCCC2)cccc1OCC(=O)O` (racemic) [Example 33, (R/S) {3-[(Cyclopentyl{4-[5-(trifluoromethyl)pyridin-3-yl]phenyl}acetyl)amino]-2-methylphenoxy}acetic acid]: the IC50 worked out at 14.3 nM.

For `Cc1ncc(-c2ccc(C(C(=O)Nc3cccc(C(C)CC(=O)O)c3C)C3CCCC3)cc2F)cc1Cl` (single isomer, unassigned; stereoisomer 4) [Example 124, 3-[3-({[4-(5-Chloro-6-methylpyridin-3-yl)-3-fluorophenyl](cyclopentyl)acetyl}amino)-2-methylphenyl]butanoic acid, Stereoisomer 4], the IC50 was found to be 5.06 nM.

In the case of `Cc1c(CCC(=O)O)cccc1NC(=O)C(c1ccc(-c2cncc(Cl)c2)cc1)C1CC1` (racemic) [Example 31, (R/S) 3-[3-({[4-(5-Chloropyridin-3-yl)phenyl](cyclopropyl)acetyl}amino)-2-methylphenyl]propanoic acid], the IC50 was determined as 443 nM.

On to `Cc1c(CCC(=O)O)cccc1NC(=O)C(c1ccc(-c2ccc(C(F)(F)F)nc2)cc1)C1CCCC1` (racemic) [Example 4, (R/S) 3-{3-[(Cyclopentyl{4-[6-(trifluoromethyl)pyridin-3-yl]phenyl}acetyl)amino]-2-methylphenyl}propanoic acid], for which the IC50 was determined as 1320 nM.

On to `Cc1c(CCC(=O)O)cc(F)cc1NC(=O)C(c1ccc(-c2cncc(C(F)(F)F)c2)cc1)C1CCCC1` (racemic) [Example 167, (R/S) 3-{3-[(cyclopentyl{4-[5-(trifluoromethyl)pyridin-3-yl]phenyl}acetyl)amino]-5-fluoro-2-methylphenyl}propanoic acid], for which the IC50 was 295 nM.

With `CCOc1cncc(-c2ccc(C(C(=O)Nc3cccc(CCC(=O)O)c3C)C3CCCCC3)cc2)c1` (racemic) [Example 67, (R/S) 3-[3-({Cyclohexyl[4-(5-ethoxypyridin-3-yl)phenyl]acetyl}amino)-2-methylphenyl]propanoic acid], the 50% inhibitory concentration (IC50) was 328 nM.
